Numbered stars: 1 amine (or outer) side, 2 acyl side, 3 side chain; on linkers, the order of the positions; unused ones are H or OH. Bridge positions count the residues as written; N and C are the ends. Square brackets hold non-standard residues; d marks the D form. Peptide text beside a SMILES is read from it. * marks the point of attachment. ξ: configuration not given here. Tyr(3-NO2) = N[C@@H](Cc1ccc(O)c([N+](=O)[O-])c1)C(=O)O; X33 = O=C([C@H](Cc1ccc(-c2cccc(Cl)c2)cc1)N[*:1])[*:2]; Phe(3-allyloxy) = C=CCOc1cccc(C[C@H](N)C(=O)O)c1; Phe(2,4-Cl2) = N[C@@H](Cc1ccc(Cl)cc1Cl)C(=O)O; Phe(4-CH2NH2) = NCc1ccc(C[C@H](N)C(=O)O)cc1; Bip = N[C@@H](Cc1ccc(-c2ccccc2)cc1)C(=O)O; Phe(3-Me) = Cc1cccc(C[C@H](N)C(=O)O)c1; Phe(2-Me) = Cc1ccccc1C[C@H](N)C(=O)O; 4Pal = N[C@@H](Cc1ccncc1)C(=O)O; Cha = N[C@@H](CC1CCCCC1)C(=O)O; Ile(3ξ) = CCC(C)[C@H](N)C(=O)O; Thr(3ξ) = CC(O)[C@H](N)C(=O)O; Carboxymethyl = O=C(O)C*; NMeA = CN[C@@H](C)C(=O)O; Orn = NCCC[C@H](N)C(=O)O; Dab = NCC[C@H](N)C(=O)O; Dap = NC[C@H](N)C(=O)O

One may read the IC50 as the point on the concentration scale where inhibition reaches its midpoint.

The target in the experiment is T1, PE-labeled human PD-L1-Ig binding to Jurkat cell line over-expressing human PD-1 (Jurkat-PD-1) (Homo sapiens, UniProt Q15116).
T1 construct: expressed in transfected cells; host or cells: Jurkat
T1 sequence (Q15116 25-288): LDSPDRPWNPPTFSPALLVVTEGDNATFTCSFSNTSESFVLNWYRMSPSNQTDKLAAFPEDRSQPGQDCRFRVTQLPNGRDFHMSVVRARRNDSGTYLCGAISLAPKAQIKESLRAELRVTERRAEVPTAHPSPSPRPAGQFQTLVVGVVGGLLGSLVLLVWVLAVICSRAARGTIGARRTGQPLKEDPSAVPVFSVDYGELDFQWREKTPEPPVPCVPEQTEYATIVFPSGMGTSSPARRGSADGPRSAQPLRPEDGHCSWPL
As to the kind of experiment: Jurkat-PD-1 Cell Binding High-Content Screening Assay (CBA): Method 1. The conditions noted are these: Jurkat-hPD-1 cells, PE-labeled PD-L1-Ig 20 nM final; read-out: Jurkat HPDL1 PD1 IC50 (uM) (Method 1).
With `CC(C)C[C@@H]1NC(=O)[C@H](CCCNC(=N)N)NC(=O)[C@@H](C)NC(=O)[C@H](C)N(C)C(=O)[C@H](CCCNC(=N)N)NC(=O)[C@H](Cc2ccc(-c3ccccc3)cc2)NC(=O)[C@H](C(C)C)NC(=O)[C@H](Cc2c[nH]c3ccccc23)NC(=O)[C@H](CC(=O)O)NC(=O)[C@H](Cc2ccc(O)cc2)NC(=O)[C@H](Cc2ccccc2)NC(=O)CSC[C@@H](C(=O)NCC(N)=O)NC(=O)[C@H](CO)NC(=O)[C@H](C(C)C)NC1=O` [Compound 1016] ({CH2CO}-FYDWV[Bip]R[NMeA][dA]RLVSCG-NH2; thioether N-14), the IC50 was 0.13 µM.

As for `CC(C)C[C@@H]1NC(=O)[C@H](CCN)NC(=O)[C@@H](CC(C)C)NC(=O)[C@H](C)N(C)C(=O)[C@H](CCCN)NC(=O)[C@H](Cc2ccc(-c3ccccc3)cc2)NC(=O)[C@H](C(C)C)NC(=O)[C@H](Cc2c[nH]c3ccccc23)NC(=O)[C@H](CC(=O)O)NC(=O)[C@H](Cc2ccc(O)cc2)NC(=O)[C@H](Cc2ccncc2)NC(=O)CSC[C@@H](C(=O)N[C@@H](C)C(N)=O)NC(=O)[C@H](C(C)O)NC(=O)[C@H](C(C)C)NC1=O` (stereo partly drawn) [Compound 2081] ({CH2CO}-[4Pal]YDWV[Bip][Orn][NMeA][dL][Dab]LV[Thr(3ξ)]CA-NH2; thioether N-14), the IC50 worked out at 0.03 µM.

Turning to `CC(C)C[C@@H]1NC(=O)[C@H](Cc2c[nH]c3ccccc23)NC(=O)[C@H](CC(=O)O)NC(=O)[C@H](Cc2ccc(O)cc2)NC(=O)[C@H](Cc2ccccc2)NC(=O)CSC[C@@H](C(=O)NCC(N)=O)NC(=O)[C@H](CO)NC(=O)[C@H](C(C)C)NC(=O)[C@H](CC(C)C)NC(=O)[C@H](CC(N)=O)NC(=O)[C@@H](CC(C)C)NC(=O)[C@H](C)N(C)C(=O)[C@H](CCC(=O)O)NC(=O)[C@H](Cc2ccc(-c3ccccc3)cc2)NC1=O` [Compound 1510] ({CH2CO}-FYDWL[Bip]E[NMeA][dL]NLVSCG-NH2; thioether N-14), the IC50 was found to be 0.06 µM.

For `CC[C@H](C)[C@@H]1NC(=O)[C@H](Cc2ccc(-c3ccccc3)cc2)NC(=O)[C@H](C(C)C)NC(=O)[C@H](Cc2c[nH]c3ccccc23)NC(=O)[C@H](CC(=O)O)NC(=O)[C@H](Cc2ccc(O)c([N+](=O)[O-])c2)NC(=O)[C@H](CN)NC(=O)CSC[C@@H](C(=O)N[C@@H](C)C(N)=O)NC(=O)[C@H]([C@@H](C)O)NC(=O)[C@H](C(C)C)NC(=O)[C@H](CC(C)C)NC(=O)[C@H](CCN)NC(=O)[C@@H](CC(C)C)NC(=O)[C@H](C)N(C)C1=O` [Compound 1409] ({CH2CO}-[Dap][Tyr(3-NO2)]DWV[Bip]I[NMeA][dL][Dab]LVTCA-NH2; thioether N-14), the IC50 amounted to 0.04 µM.

In the case of `CC(C)C[C@@H]1NC(=O)[C@H](Cc2c[nH]c3ccccc23)NC(=O)[C@H](CC(=O)O)NC(=O)[C@H](Cc2ccc(O)cc2)NC(=O)[C@H](Cc2ccccc2)NC(=O)CSC[C@@H](C(=O)N[C@@H](C)C(N)=O)NC(=O)[C@H](CO)NC(=O)[C@H](C(C)C)NC(=O)[C@H](CC(C)C)NC(=O)[C@H](CC(N)=O)NC(=O)[C@@H](C)NC(=O)[C@H](C)N(C)C(=O)[C@H](C(C)C)NC(=O)[C@H](Cc2ccc(-c3cccc(Cl)c3)cc2)NC1=O` [Compound 1774] ({CH2CO}-FYDWL[X33]V[NMeA][dA]NLVSCA-NH2; thioether N-14), the IC50 was 0.05 µM.

`C=CCOc1cccc(C[C@@H]2NC(=O)[C@H](Cc3ccccc3)NC(=O)CSC[C@@H](C(=O)N[C@@H](C)C(N)=O)NC(=O)[C@H](CO)NC(=O)[C@H](C(C)C)NC(=O)[C@H](CC(C)C)NC(=O)[C@H](CC(N)=O)NC(=O)[C@@H](C)NC(=O)[C@H](C)N(C)C(=O)[C@H](C(C)C)NC(=O)[C@H](Cc3ccc(-c4ccccc4)cc3)NC(=O)[C@H](CC(C)C)NC(=O)[C@H](Cc3c[nH]c4ccccc34)NC(=O)[C@H](CC(=O)O)NC2=O)c1` [Compound 1772] ({CH2CO}-F[Phe(3-allyloxy)]DWL[Bip]V[NMeA][dA]NLVSCA-NH2; thioether N-14): the IC50 worked out at 0.04 µM. Regarding `Cc1ccccc1C[C@@H]1NC(=O)[C@H](Cc2ccccc2)NC(=O)CSC[C@@H](C(=O)N[C@@H](C)C(N)=O)NC(=O)[C@H](CO)NC(=O)[C@H](C(C)C)NC(=O)[C@H](CC(C)C)NC(=O)[C@H](CC(N)=O)NC(=O)[C@@H](C)NC(=O)[C@H](C)N(C)C(=O)[C@H](C(C)C)NC(=O)[C@H](Cc2ccc(-c3ccccc3)cc2)NC(=O)[C@H](CC(C)C)NC(=O)[C@H](Cc2c[nH]c3ccccc23)NC(=O)[C@H](CC(=O)O)NC1=O` [Compound 1794] ({CH2CO}-F[Phe(2-Me)]DWL[Bip]V[NMeA][dA]NLVSCA-NH2; thioether N-14), the IC50 worked out at 0.15 µM. On to `CC(C)C[C@@H]1NC(=O)[C@H](Cc2c[nH]c3ccccc23)NC(=O)[C@H](CC(=O)O)NC(=O)[C@H](Cc2ccc(Cl)cc2Cl)NC(=O)[C@H](Cc2ccccc2)NC(=O)CSC[C@@H](C(=O)N[C@@H](C)C(N)=O)NC(=O)[C@H](CO)NC(=O)[C@H](C(C)C)NC(=O)[C@H](CC(C)C)NC(=O)[C@H](CC(N)=O)NC(=O)[C@@H](C)NC(=O)[C@H](C)N(C)C(=O)[C@H](C(C)C)NC(=O)[C@H](Cc2ccc(-c3ccccc3)cc2)NC1=O` [Compound 1810] ({CH2CO}-F[Phe(2,4-Cl2)]DWL[Bip]V[NMeA][dA]NLVSCA-NH2; thioether N-14), for which the IC50 turned out to be 0.28 µM. With `Cc1cccc(C[C@@H]2NC(=O)[C@H](CC(=O)O)NC(=O)[C@H](Cc3ccc(OCC(=O)O)cc3)NC(=O)[C@H](CCCNC(=N)N)NC(=O)CSC[C@@H](C(N)=O)NC(=O)[C@H]([C@@H](C)O)NC(=O)[C@H](C(C)C)NC(=O)[C@H](CC3CCCCC3)NC(=O)[C@H](CCN)NC(=O)[C@@H](CC(C)C)NC(=O)[C@H](C)N(C)C(=O)[C@H](CCCN)NC(=O)[C@H](Cc3ccc(-c4ccccc4)cc3)NC(=O)[C@H](Cc3ccc(O)cc3)NC2=O)c1` [Compound 1868] ({CH2CO}-RY(Carboxymethyl)D[Phe(3-Me)]Y[Bip][Orn][NMeA][dL][Dab][Cha]VTC-NH2; thioether N-14) the figure was 0.17 µM; with `CCC(C)[C@@H]1NC(=O)[C@H](Cc2ccc(-c3ccccc3)cc2)NC(=O)[C@H](C(C)C)NC(=O)[C@H](Cc2c[nH]c3ccccc23)NC(=O)[C@H](CC(=O)O)NC(=O)[C@H](Cc2ccc(O)cc2)NC(=O)[C@H](Cc2ccc(CN)cc2)NC(=O)CSC[C@@H](C(=O)N[C@@H](C)C(N)=O)NC(=O)[C@H](C(C)O)NC(=O)[C@H](C(C)C)NC(=O)[C@H](CC2CCCCC2)NC(=O)[C@H](CCN)NC(=O)[C@@H](CC(C)C)NC(=O)[C@H](C)N(C)C1=O` (stereo partly drawn) [Compound 2062] ({CH2CO}-[Phe(4-CH2NH2)]YDWV[Bip][Ile(3ξ)][NMeA][dL][Dab][Cha]V[Thr(3ξ)]CA-NH2; thioether N-14), 0.02 µM. As for `CC(C)C[C@@H]1NC(=O)[C@H](Cc2c[nH]c3ccccc23)NC(=O)[C@H](CC(=O)O)NC(=O)[C@H](Cc2ccc(OCC(=O)O)cc2)NC(=O)[C@H](Cc2ccccc2)NC(=O)CSC[C@@H](C(=O)N[C@@H](C)C(N)=O)NC(=O)[C@H](CO)NC(=O)[C@H](C(C)C)NC(=O)[C@H](CC(C)C)NC(=O)[C@H](CC(N)=O)NC(=O)[C@@H](CC(C)C)NC(=O)[C@H](C)N(C)C(=O)[C@H](CC(=O)O)NC(=O)[C@H](Cc2ccc(-c3ccccc3)cc2)NC1=O` [Compound 2029] ({CH2CO}-FY(Carboxymethyl)DWL[Bip]D[NMeA][dL]NLVSCA-NH2; thioether N-14), the figure is 0.04 µM.

These data come from US20240409585A1, “MACROCYCLIC IMMUNOMODULATORS” (priority 2021, published 2024).
